Laboratory results reported in PMC11887051, “Discovery of ONO-2920632 (VU6011887): A Highly Selective and CNS Penetrant TREK-2 (TWIK-Related K+ Channel 2) Preferring Activator In Vivo Tool Compound” (ACS Chemical Neuroscience, 2025).
Like-named read-outs stand apart in the source and are kept apart here.

Assays:
[1] = rat plasma protein binding (equilibrium dialysis); type: in vitro ADME; details: pH 7.4, read-out: rat plasma fu
Protocol: In vitro Plasma protein binding and Brain homogenate binding: Determination of fraction unbound (f u) in plasma was conducted in vitro via equilibrium dialysis using HTDialysis (HTD) membrane plates. The top half of the plate was filled with 100 uL of Dubelco’s Phosphate Buffered Saline, pH 7.4 (DPBS). Compounds were diluted into plasma from each species (5 µM final concentration), which was aliquoted in triplicate to the ‘bottom half’ of the prepared HTD plate wells. The HTD plate was sealed and incubated for 6 hours at 37 °C. Following incubation, each well (both top and bottom halves) were transferred (20 µL) to the corresponding wells of a 96-shallow-well (V-bottom) plate. The daughter plates were then matrix-matched (DPBS side wells received equal volume of plasma, and plasma side wells received equal volume of DPBS), and extraction solution (120 µL; acetonitrile containing 50 nM carbamazepine as IS) was added to all wells of both daughter plates to precipitate protein and extract test article. The plates were then sealed and centrifuged (3500 rcf) for 10 minutes at ambient temperature. Supernatant (60 µL) from each well of the daughter plates was then transferred to the corresponding wells of new daughter plates (96-shallow-well, V bottom) containing water (Milli-Q, 60 µL/well), and the plates were sealed in preparation for LC-MS/MS analysis (see LC-MS/MS analysis method below).
The unbound fraction (f u) was calculated following the equation below, and mean values for each species were calculated from 3 replicates. […]
Fraction unbound for both plasma and brain samples was determined using Equation 4.
Equation 4 Determination of fraction unbound in plasma. […]

TREK-1 [2] = biological target: T1, TREK-1 (Homo sapiens, UniProt O95069); assay: TREK-1 activation, BL-1249 series (assay not given); type: cell-based; details: assay format not stated
T1 sequence (O95069 1-426): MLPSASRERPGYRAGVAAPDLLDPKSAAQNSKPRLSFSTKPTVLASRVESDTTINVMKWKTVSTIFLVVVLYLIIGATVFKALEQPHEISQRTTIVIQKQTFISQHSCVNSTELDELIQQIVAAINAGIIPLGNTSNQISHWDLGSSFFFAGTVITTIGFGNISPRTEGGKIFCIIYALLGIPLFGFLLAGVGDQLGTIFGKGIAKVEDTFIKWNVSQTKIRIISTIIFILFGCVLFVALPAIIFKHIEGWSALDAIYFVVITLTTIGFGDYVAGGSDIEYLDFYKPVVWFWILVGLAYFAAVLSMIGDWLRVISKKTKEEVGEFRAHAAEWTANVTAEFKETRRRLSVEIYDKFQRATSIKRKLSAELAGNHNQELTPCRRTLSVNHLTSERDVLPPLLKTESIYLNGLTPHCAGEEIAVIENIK

[3] = rat predicted hepatic clearance (hepatic microsomes); type: in vitro ADME
Protocol: Intrinsic clearance: Human or rat hepatic microsomes (0.5 mg/mL) and 1 µM test compound were incubated in 100 mM potassium phosphate pH 7.4 buffer with 3 mM MgCl2 at 37 °C with constant shaking. After a 5 min preincubation, the reaction was initiated by the addition of NADPH (1 mM). At selected time intervals (0, 3, 7, 15, 25, and 45 min), aliquots were taken and subsequently placed into a 96-well plate containing cold acetonitrile with internal standard (50 ng/mL carbamazepine). Plates were then centrifuged at 3000 rcf (4 °C) for 10 min, and the supernatant was transferred to a separate 96-well plate and diluted 1:1 with water for LC/MS/MS analysis. The in vitro half-life ( 1/2, min, Eq. 1), intrinsic clearance (CLint, mL/min/kg, Eq. 2), and subsequent predicted hepatic clearance (CLhep, mL/min/kg, Eq. 3) was determined employing the […]
where k represents the slope from linear regression analysis of the natural log percent remaining of a test compound as a function of incubation time […]
(2) CLint = in vitroT1/2 x mg microsomes x gram liver x kg body wt ascale-up factors: of 20 (human) or 45 (rat) […]
where Qh (hepatic blood flow, mL/min/kg) is 21 (human) or 70 (rat).
LC/MS/MS Bioanalysis of Samples from Plasma Protein Binding and Intrinsic Clearance […]
Samples were analyzed on a Thermo Electron TSQ Quantum Ultra triple quad mass spectrometer (San Jose, CA) via electrospray ionization (ESI) with two Themo Electron Accella pumps (San Jose, CA), and a Leap Technologies CTC PAL autosampler (Carrboro, NC). Analytes were separated by gradient elution on a dual column system with two Thermo Hypersil Gold (2.1 x 30 mm, 1.9 µm) columns (San Jose, CA) thermostated at 40 °C. HPLC mobile phase A was 0.1% formic acid in water and mobile phase B was 0.1% formic acid in acetonitrile. The gradient started […]
for 0.2 min; returned to 10% B in 0.1 min. The total run time was 1.3 min and the HPLC flow rate was 0.8 mL/min. While pump 1 ran the gradient method, pump 2 equilibrated the alternate column isocratically at 10% B. Compound optimization, data collection, and processing was performed using Thermo Electron's QuickQuan software (v2.3) and Xcalibur (v2.0.7 SP1).

TREK-2 = biological target: T2, TREK-2 (Homo sapiens, UniProt P57789); assay: TREK-2 activation, BL-1249 series (assay not given); type: cell-based; details: assay format not stated
T2 sequence (P57789 1-538): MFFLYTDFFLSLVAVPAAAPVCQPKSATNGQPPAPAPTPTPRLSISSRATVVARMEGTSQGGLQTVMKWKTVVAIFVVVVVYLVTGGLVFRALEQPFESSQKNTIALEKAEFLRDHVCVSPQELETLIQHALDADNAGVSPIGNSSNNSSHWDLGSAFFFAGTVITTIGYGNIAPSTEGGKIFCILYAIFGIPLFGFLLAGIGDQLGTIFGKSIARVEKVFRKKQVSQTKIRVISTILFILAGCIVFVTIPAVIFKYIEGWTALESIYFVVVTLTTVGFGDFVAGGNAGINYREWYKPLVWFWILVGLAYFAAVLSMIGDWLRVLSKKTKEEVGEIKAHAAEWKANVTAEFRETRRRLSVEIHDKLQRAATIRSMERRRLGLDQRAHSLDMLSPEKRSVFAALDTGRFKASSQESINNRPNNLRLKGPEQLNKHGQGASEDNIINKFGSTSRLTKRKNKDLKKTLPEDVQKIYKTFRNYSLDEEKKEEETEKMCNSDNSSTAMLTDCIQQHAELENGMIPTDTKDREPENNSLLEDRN

TREK-1 [4] = biological target: T1, TREK-1; set-up: method as in PMID 32851651; details: read-out: functional EC50 for activation of TREK-1; cited from earlier work
rodents = test system: rodents; set-up: method as in PMID 32851651; details: cited from earlier work

Structure (SMILES) | fraction unbound at 6 h, 5 µM [1] | EC50 (TREK-1 [2]) [µM] | Emax (TREK-1 [2]) [%] | rat CLhep (predicted hepatic clearance) [3] [mL/min/kg] | EC50 (TREK-2) [µM] | Emax (TREK-2) [%] | EC50 (TREK-1 [4]) [µM] | morphine-like adverse events at efficacious doses (rodents) | antinociceptive activity (rodents; naïve rodents and models of neuropathic and inflammatory pain)
O=c1[nH]c(-c2ccc(F)cc2Nc2cccc(C(F)(F)F)c2)no1 [Compound 11] | 0.042 | 3.6 | 67 | 26.8 | 12.9 | 129 |  |  | 
N#C/C(=C\c1ccoc1)C(=O)O [Compound 3] |  |  |  |  |  |  | 37 | did not induce respiratory depression, rewarding effects, depression, constipation or other morphine-inducing adverse events | antinociceptive activity
